Measurements taken from patent US6458549B2, “Methods of diagnosing renal salt wasting syndrome and Alzheimer's disease and methods of treating the same” (Winthrop-University Hospital, priority 1998, dated 2002).
“Also recorded” adds a separate entry of the source.

Columns and labels:
LLC-PK1 cells = test: TUNEL apoptosis assay (apoptotic index) in cultured LLC-PK1 cells; assay type: cell-based, pig; settings: for Apoptotic activity (in words): substance alone; for AI: 2 h
Method: Cell Culture and Assay Protocol. LLC-PK1, a pig kidney epithelial cell line was plated at a density of 10^3 cells per well into eight-well Permanox plastic chamber slides (NUNC, Naperville, Ill.). The cells were cultured at 37° C. in 5% CO2 in humidified incubators and grown for 3 days to 70-80% confluency in DMEM-F12 that was supplemented with 10% fetal calf serum, 7.5% sodium bicarbonate, 15 mM HEPES, 200 mM L-Glutamate, 100 u penicillin and 0.1 ug/ml streptomycin (Life Technologies, Gaithersburg, Md.). The culture fluid was then removed and cells were exposed to plasma from control individuals, Alzheimer's disease patients or multi-infarct dementia patients diluted 1:5 in fresh DMEM-F12 media, supplemented as above, for 2 h at 37° C. The cells were then rinsed in PBS, and fixed in 4% formaldehyde in PBS for 10 min., permeabilized with 0.5% Triton X-100 (Sigma Chemical CO., St. Louis, Mo.) for 5 min. and washed in 4 changes of distilled water. A positive control was obtained by exposing cells to 0.6 mM H2O2 diluted in DMEM-F12 for 2 h.
Apoptosis Assay (TUNEL): Nuclear DNA fragmentation consistent with apoptosis was determined by the method of TdT-mediated dUTP-biotin nick-end labeling (TUNEL) (Y. Gavrieli et al., J. Cell. Biol. 119:493-501, 1992). The ApopDetek cell death assay kit (Enzo, Farmingdale, N.Y.) was used utilizing terminal deoxynucleotide transferase to incorporate Bio-16-dUTP onto the 3′-OH termini in the DNA of apoptotic cells, subsequent binding with streptavidin-horseradish peroxidase, and visualization after conversion of the substrate and chromagen (hydrogen peroxide and aminoethylcarbazole) into a localized brick red precipitate. A blue counter stain was also used. Slides were then observed for morphologically irregular and condensed nuclei which contain dark red precipitate to indicate TUNEL-positive cells using a Nikon (Nikon, Inc., Melville, N.Y.) Optiphot microscope. Five to six random field totaling approximately 1,000 to 1,500 cells were counted per slide. Apoptotic index (AI), defined as the percent of cells undergoing apoptosis, is calculated by dividing the number of positive nuclei by the total number of nuclei counted multiplied by 100. […]
Effect of Protein Synthesis on Apoptotic Activity. LLC-PK1 cells were exposed to Alzheimer's disease and control plasma in the absence and presence of cycloheximide (0.2-200 uM) (Sigma, St. Louis, Mo.). Apoptotic index was measured in these cells by TUNEL assay.
Effect of Calcium Depletion on Factor Activity. The TUNEL assay was performed in the usual manner except for substituting DMEM-F12 with calcium-free DMEM, supplemented with dialyzed 10% fetal calf serum (Life Technologies, Grand Island, N.Y.) and 0.6 mM EGTA to chelate calcium. Dialyzed Alzheimer's disease and control plasma were then added to the calcium-free media for 2 h at 37° C. and a TUNEL assay performed.
Contribution of Known Apoptotic Inducers. To test the possibility that the apoptotic factor in Alzheimer's disease plasma was β amyloid, TNF-α or myeloma light chain, the TUNEL assay was repeated as above after a 2 h incubation at 37° C. with […] β amyloid (Peninsula Laboratories, Inc., Belmont, Calif.), 5 pM-3 nM TNF-α (Quantikine, Minneapolis, Minn.) and 3-60 ug λ myeloma light chain, kindly supplied by Dr. Vecihi Batuman, Tulane University School of Medicine, New Orleans, La. To eliminate the possibility that a protease in Alzheimer's disease plasma is responsible for the apoptotic activity, the effect of a broad spectrum protease inhibitor cocktail (Boehringer Mannheim) was studied on apoptotic index using the TUNEL assay. LCC-PK1 cells were incubated with Alzheimer's disease plasma with and without the inhibitor cocktail and assayed as detailed above. This cocktail inhibits a large spectrum of serine, cysteine, and metalloproteases as well as calpains. It consists of aprotinin, leupeptin, EDTA, and pefabloc.

[1] = test system: human kidney proximal tubule cells; test: Apoptosis of human kidney proximal tubule cells in culture; assay type: cell-based
Method: Apoptosis Assay (TUNEL): Nuclear DNA fragmentation consistent with apoptosis was determined by the method of TdT-mediated dUTP-biotin nick-end labeling (TUNEL) (Y. Gavrieli et al., J. Cell. Biol. 119:493-501, 1992). The ApopDetek cell death assay kit (Enzo, Farmingdale, N.Y.) was used utilizing terminal deoxynucleotide transferase to incorporate Bio-16-dUTP onto the 3′-OH termini in the DNA of apoptotic cells, subsequent binding with streptavidin-horseradish peroxidase, and visualization after conversion of the substrate and chromagen (hydrogen peroxide and aminoethylcarbazole) into a localized brick red precipitate. A blue counter stain was also used. Slides were then observed for morphologically irregular and condensed nuclei which contain dark red precipitate to indicate TUNEL-positive cells using a Nikon (Nikon, Inc., Melville, N.Y.) Optiphot microscope. Five to six random field totaling approximately 1,000 to 1,500 cells were counted per slide. Apoptotic index (AI), defined as the percent of cells undergoing apoptosis, is calculated by dividing the number of positive nuclei by the total number of nuclei counted multiplied by 100.

**Q.** For `CCCCC[C@H](O)C/C=C1/C(=O)C=C[C@@H]1C/C=C\CCCC(=O)O` [-Δ^12Prostaglandin J2], which “Apoptotic activity (in words)” value (LLC-PK1 cells) is on record?
**A.** increases the rate of apoptosis

**Q.** And the “Effect on apoptosis (in words)” value ([1]; addition of Δ12Prostaglandin J2 to Indomethacin)?
**A.** increased apoptosis

**Q.** And the “Effect on apoptosis (in words)” value ([1]; combination of Indomethacin, Prostaglandin D2 Synthase and Δ12Prostaglandin J2)?
**A.** increased apoptosis

**Q.** What about the “Effect on apoptosis (in words)” value ([1]; substance alone) of the same molecule?
**A.** induces apoptosis; also recorded: increased apoptosis to the same degree as prostaglandin D2 synthase

**Q.** And the “Effect on apoptosis (in words)” value ([1]; substance alone, listed as -Δ^12prostaglandin J2)?
**A.** induces apoptosis

**Q.** For `C[C@@H]1C[C@@H]([C@H](O)CC2CC(=O)NC(=O)C2)C(=O)[C@@H](C)C1` [Cycloheximide, cycloheximide], which “Effect on apoptosis by Alzheimer's disease plasma (in words)” value (LLC-PK1 cells; 200 uM cycloheximide) is on record?
**A.** inhibition of apoptosis

**Q.** What about the “AI (%)” value (LLC-PK1 cells; cycloheximide 200 uM, cells exposed to Alzheimer's plasma) of the same molecule?
**A.** 7.7 ± 1.6%

**Q.** And the “AI (%)” value (LLC-PK1 cells; cycloheximide 200 uM, cells exposed to control plasma)?
**A.** 6.3 ± 1.5%

**Q.** And the “AI (%)” value (LLC-PK1 cells; cycloheximide 0.2-20 uM, cells exposed to Alzheimer's plasma)?
**A.** 28.7 ± 4.0%

**Q.** And the “AI (%)” value (LLC-PK1 cells; cycloheximide 0.2-20 uM, cells exposed to control plasma)?
**A.** 5.0 ± 0.0%

**Q.** And the “Effect on apoptosis by Alzheimer's disease plasma (in words)” value (LLC-PK1 cells; lower concentrations of cycloheximide)?
**A.** no inhibition of apoptosis

**Q.** Which results are given for `COc1ccc2c(c1)c(CC(=O)O)c(C)n2C(=O)c1ccc(Cl)cc1` [Indomethacin]?
**A.** Effect on apoptosis (in words) ([1]; simultaneous addition of Indomethacin and Prostaglandin D2 Synthase): did not increase apoptosis above baseline; Effect on apoptosis (in words) ([1]; substance alone): inhibited apoptosis to baseline

**Q.** `CCN1C(=O)C=CC1=O` [N-Ethyl Maleimide] was tested. Which “Effect on apoptosis (in words)” value ([1]; deactivation/inhibition of Prostaglandin D2 Synthase by N-Ethyl Maleimide) did it give?
**A.** inhibited apoptosis

**Q.** Which “Effect on apoptosis (in words)” value ([1]; substance alone) does the source give for `CCCCC[C@H](O)/C=C/[C@H]1C(=O)C[C@H](O)[C@@H]1C/C=C\CCCC(=O)O` [Prostaglandin D, prostaglandin D2] here?
**A.** did not increase apoptosis

**Q.** How did the “Effect on apoptosis (in words)” value ([1]; substance alone) turn out when `CCCCC[C@H](O)/C=C/[C@@H]1[C@@H](C/C=C\CCCC(=O)O)[C@@H]2C[C@H]1OO2` [Prostaglandin H, prostaglandin H2] was run?
**A.** did not increase apoptosis

**Q.** Prostaglandins E [Prostaglandin E] was tested. Which “Effect on apoptosis (in words)” value ([1]; substance alone) did it give?
**A.** did not increase apoptosis

**Q.** With TNF-α as the molecule, how does the AI (LLC-PK1 cells; doses as high as 50 pM) read?
**A.** 6%

**Q.** What does the source list for β-amyloid?
**A.** AI (LLC-PK1 cells; 50 uM in media): 6.1±3.1%; Apoptotic activity (in words) (LLC-PK1 cells): No detectable apoptotic activity

B1: α1 microglobulin: protein co-found in the 32 Kd band from urine of a renal salt wasting patient (protein, UniProt P02760 20-203, looked up)
Alpha-1-microglobulin: GPVPTPPDNIQVQENFNISRIYGKWYNLAIGSTCPWLKKIMDRMTVSTLVLGEGATEAEISMTSTRWRKGVCEETSGAYEKTDTDGKFLYHKSKWNITMESYVVHTNYDEYAIFLTKKFSRHHGPTITAKLYGRAPQLRETLLQDFRVVAQGVGIPEDSIFTMADRGECVPGEQEPEPILIPRV
modifications: Alpha-1-microglobulin
notes: protein co-found in the 32 Kd band from urine of a renal salt wasting patient
**Q.** How did the “Apoptotic activity (in words)” value (LLC-PK1 cells) turn out when B1 was run?
**A.** no apoptotic activity

B2: Prostaglandin D2 Synthase: enzyme that converts prostaglandin H2 to prostaglandin D2; identified apoptotic factor (protein, UniProt P41222 23-190, looked up)
Prostaglandin-H2 D-isomerase: APEAQVSVQPNFQQDKFLGRWFSAGLASNSSWLREKKAALSMCKSVVAPATDGGLNLTSTFLRKNQCETRTMLLQPAGSLGSYSYRSPHWGSTYSVSVVETDYDQYALLYSQGSKGPGEDFRMATLYSRTQTPRAELKEKFTAFCKAQGFTEDTIVFLPQTDKCMTEQ
**Q.** Which results are given for B2?
**A.** Effect on apoptosis (in words) ([1]; substance alone): increased apoptosis; Increase of apoptosis above control ([1]; substance alone): about four times above control
